Assay [1] has as its system CHO K1 cells. The experiment in a line: Cytotoxicity dose-response (MTS cell viability) in CHO K1 cells. In kind it is cell-based, Chinese hamster. Conditions: 48 h. The procedure:
CHO K1 Studies. Wild type Chinese hamster ovary (CHO K1) cells were chosen to first study the synthetic compounds' impact on polyamine metabolism. The CHO K1 cell line has high polyamine transport activity and was useful in screening compounds for their polyamine transport inhibitor activity. A dose-response curve was obtained for each compound to determine their toxicity in CHO K1 cells after 48 h incubation. Compound 9 (1666.177) was non-toxic up to the highest dose tested (15 μM).
(§1) Regarding the biological studies performed in the following examples, it is noted that CHO K1, CHO-MG, and L3.6pl cells were grown in RPMI 1640 medium supplemented with 10% fetal bovine serum (FBS) and 1% penicillin/streptomycin. All cells were grown at 37° C. under a humidified 5% CO2 atmosphere. Aminoguanidine (1 mM used for CHO K1 and CHOMG cells and 250 μM for L3.6pl) was added to the growth medium to prevent oxidation of the compounds of the bovine serum amine oxidase enzyme that is present in calf serum. The cells used were in early to mid log phase and CHO and CHOMG were plated out at 1000 cells/well, whereas the L3.6pl cells were plated at 500 cells/well in a 96 well plate format.
(§2) This example illustrates aspects according to various embodiments pertaining to IC50 determinations and cell viability studies. Cell growth was assayed in sterile 96-well microtiter plates (Costar 3599, Corning, N.Y.). CHO K1 or CHOMG cells were plated at 1,000 cells/70 μL and L3.6pl cells at 500 cells/70 μL. The drug solutions of appropriate concentration in phosphate buffered saline (PBS) were added 10 μL per well after overnight incubation. After drug exposure (e.g., for 48 h for CHO K1 and CHO-MG and 48 h or 72 h for L3.6pl), cell growth was determined by measuring formazan formation from the 3-(4,5dimethylthiazol-2-yl)-5-(3-carboxymethoxyphenyl)-2-(4-sulfenyl)-2H tetrazolium, inner salt (MTS) using SynergyMx Biotek microplate reader for absorbance (490 nm) measurements.^27 All experiments were run in triplicate.

Assay [2] relates to L3.6pl human pancreatic cancer cells. The experiment in a line: Cytotoxicity dose-response (MTS) in L3.6pl cells. In kind it is cell-based. Here is the method: L3.6pl Studies. Compounds 9 and 10 were evaluated in the metastatic human pancreatic cancer cell line, L3.6pl. L3.6pl has a K-ras mutation, and high polyamine uptake activity.^7 A dose-response curve was obtained for each compound in L3.6pl cells to determine the 72 h L3.6pl IC50 value, described as the dose at which L3.6pl cells were 50% viable compared to the untreated control.
as §1, §2

Assay [3] relates to CHO K1 cells. The experiment in a line: cells. The class given is cell-based, Chinese hamster. Conditions: Cricetulus griseus, Ant-44 0.5 μM. The procedure: Various embodiments involve the concept that a non-toxic PTI agent would inhibit the uptake of the cytotoxic polyamine conjugate Ant-44 (11) and rescue cells from Ant-44 induced toxicity. For example, using the IC50 dose of Ant-44, PTIs could be identified by measuring a compound's ability to block Ant-44 entry and rescue cells back to >90% viability. […] This toxic dose of Ant-44 was kept constant throughout the assay, while the candidate PTI compound was added in increasing concentrations up to its MTD.
Compounds (9 and 10) were tested at 5 μM and 7 μM. CHO K1 cells were treated in a 96-well plate with a toxic dose of Ant-44 (2.4 μM) alone and dosed with the candidate compounds (at 5 μM and 7 μM) and incubated for 48 h at 37° C.
To further explore this effect, development of various embodiments included modifying an original screen to use a lower dose of Ant-44 (0.5 μM) to improve the dose range of 9 and 10 that could be tested. In this regard, Ant-44 was dosed at 0.5 μM alone and in combination with increasing doses of compounds 9 (1666.177) and 10 (1666.255) and the CHO K1 cells were incubated for 48 h at 37° C., and the results are shown in FIG. 5. The red line represents the % cell viability of the Ant-44 only control. The Ant44 potentiation assay EC50 value is defined as the concentration of the candidate compound required to decrease the cell viability to half that of the Ant-44 only control. Both compounds 9 and 10 were effective at decreasing cell viability, when used in combination with Ant-44 in a dose dependent fashion.
FIG. 5 is an example according to various embodiments, illustrating potentiation of Ant-44 toxicity by compounds 9 and 10 in CHO K1 cells. Cells were incubated for 48 h at 37° C. with the respective compound and a fixed concentration of cytotoxic Ant-44 (0.5 μM). A 1 mM AG solution was incubated with the CHO K1 cells for 24 h prior to the addition of candidate compound. This was necessary to protect Ant-44 from the amine oxidases present in the media containing fetal bovine serum. […] Both compounds are nontoxic at the highest concentration tested (5 μM).

The subject of a further assay is L3.6pl cells. The experiment in a line: Ant-44 toxicity potentiation assay in L3.6pl cells. Conditions: Homo sapiens, Ant-44 2 μM, 72 h. The class given is cell-based, human. Here is the method: As performed previously with CHO K1 cells, L3.6pl cells were treated with compounds 9 (1666.177) and 10 (1666.255) and a fixed dose of Ant-44 to observe the potentiation effect. The 72 h IC50 dose of Ant-44 in L3.6pl cells was previously determined to be 4 μM. For this study, half that dose was used to replicate the large window used in the CHO experiments to look at reduction in cell viability. In a 96-well plate, L3.6pl cells were dosed with a fixed concentration of Ant-44 (2 μM) and increasing doses of compounds 9 (1666.177) and 10 (1666.255). Although both compounds were effective at reducing cell viability, higher doses were required compared to CHO K1 cells.
FIG. 6 is an example according to various embodiments, illustrating the ability of compounds 9 (1666.177) and 10 ([…]) to potentiate the effect of Ant-44 in L3.6pl cells. Cells were incubated for 72 h at 37° C. with the respective compound and Ant-44 (2 μM). A 250 μM AG solution was incubated with the cells for 24 h prior to addition of compounds. […] Both compounds are nontoxic at the second highest concentration tested (1 μM).

Assay [4] concerns CHO K1 cells. Conditions: previously determined (ref 7), read-out: 48 h IC50; cited from earlier work.
Assay [5] deals with T1, LAT-1 (Homo sapiens, UniProt Q01650).
T1 construct: endogenous in cells; host or cells: L3.6pl human pancreatic cancer cells
T1 sequence (Q01650 whole entry): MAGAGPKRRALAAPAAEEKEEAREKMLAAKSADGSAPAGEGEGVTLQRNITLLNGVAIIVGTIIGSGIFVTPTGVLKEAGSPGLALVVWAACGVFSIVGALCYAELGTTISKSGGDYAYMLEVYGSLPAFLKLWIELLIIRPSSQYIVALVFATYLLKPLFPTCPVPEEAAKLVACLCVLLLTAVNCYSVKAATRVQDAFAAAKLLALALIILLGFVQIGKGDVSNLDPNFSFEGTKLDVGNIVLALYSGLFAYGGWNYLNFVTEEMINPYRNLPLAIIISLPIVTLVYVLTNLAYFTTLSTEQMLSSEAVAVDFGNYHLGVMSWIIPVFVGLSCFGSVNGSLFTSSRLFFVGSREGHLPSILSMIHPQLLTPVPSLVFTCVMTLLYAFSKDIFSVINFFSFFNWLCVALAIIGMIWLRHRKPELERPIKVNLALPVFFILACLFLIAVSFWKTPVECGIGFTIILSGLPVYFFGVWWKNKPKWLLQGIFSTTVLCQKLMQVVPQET
T1 sequence (P08195 102-630 partner): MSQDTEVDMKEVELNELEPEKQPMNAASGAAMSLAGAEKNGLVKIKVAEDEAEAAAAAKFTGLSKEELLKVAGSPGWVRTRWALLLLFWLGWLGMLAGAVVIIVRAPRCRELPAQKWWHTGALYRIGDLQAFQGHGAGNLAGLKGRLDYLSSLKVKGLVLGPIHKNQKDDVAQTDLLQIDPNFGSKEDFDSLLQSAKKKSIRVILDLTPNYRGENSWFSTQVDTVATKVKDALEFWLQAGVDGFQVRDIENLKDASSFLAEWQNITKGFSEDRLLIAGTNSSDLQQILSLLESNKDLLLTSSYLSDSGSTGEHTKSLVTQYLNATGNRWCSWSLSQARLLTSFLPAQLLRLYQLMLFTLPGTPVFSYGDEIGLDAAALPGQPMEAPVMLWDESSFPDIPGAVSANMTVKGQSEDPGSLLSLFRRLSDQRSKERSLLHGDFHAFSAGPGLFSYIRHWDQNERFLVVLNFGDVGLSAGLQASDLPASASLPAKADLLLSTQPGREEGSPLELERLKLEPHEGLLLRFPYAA
The experiment in a line: 3H-Leucine uptake assay. The class given is cell-based. Conditions: L3.6pl cells, increasing concentration, 15 min uptake (FIG. 10D, 10E). Here is the method: ^3H-Leucine uptake experiments were performed according to the protocol developed by Hälfliger et al. (2018) (referenced below with the following changes. Briefly, cells were seeded at 60% confluency in a 24-well plate and incubated for 4 h at 37° C. After 4 hours, different concentrations of compound 10 were added and the cells were then incubated overnight. L-^3H-leucine uptake inhibition was measured for 15 minutes using a 12 μM stock of L-[^3H]leucine (79 Ci/mmol). The final concentration of ^3H-leucine in each well was 1.2 uM. This concentration produced a CPM reading of ˜4000 cpm for the control. Uptake was terminated by removing the buffer solution followed by washing the cells with cold Na^+-free Hank's Balanced Salt Solution. Cells were then lysed to give ˜500 μL of cell lysate. A portion of the cell lysate (200 μL) was mixed with Scintiverse™ BD Cocktail for determining radiocounts. The radioactivity was measured with a scintillation counter (Beckman Coulter LS 6500 Multi-Purpose Scintillation Counter). Another portion of the cell lysate (300 μL) was used for protein determination using the BCA method. The final data was expressed as cpm/microgram of protein to account for the different number of cells remaining after the experiment. This was necessary because compound 10 was toxic and less cells were present after the overnight incubation (24 h). […]

Assay [6] deals with T1, LAT-1. In words: 3H-Leucine efflux assay. Conditions: L3.6pl, 2 min; JPH-203 30 μM or compound 10 20 μM. In kind it is cell-based. From the text:
JPH203 is not toxic to L3.6pl cells over this concentration range and time interval. FIG. 10E is an example according to various embodiments, illustrating results obtained for a Leu uptake inhibition experiment with compound 10. Note: the y-axis in FIG. 10E is in CPM per ug of protein to normalize the data and account for any potential losses of cells due to toxicity of compound 10. FIG. 10F is an example according to various embodiments, illustrating results obtained for a Leucine efflux experiment with LAT-1 inhibitor JPH-203. Briefly, the efflux procedure involved cells pre-incubated with ‘hot’ leucine (3H labeled) and washed to remove unbound radiolabeled Leucine. The cells were then incubated in the presence and absence of unlabeled Leucine (100 μM) and/or the LAT-1 inhibitor JPH-203 (30 μM). In the presence of unlabeled leucine, the cells released ‘hot’ 3H-leucine into the media which was measured via scintillation/radioactivity counts. This efflux or release from within the cell was inhibited by the presence of the LAT-1 inhibitor, JPH-203 (30 μM, FIG. 10F). Since JPH203 inhibits the import of unlabeled leucine then less unlabeled Leucine will enter the cell and less efflux of radiolabeled Leucine molecules from inside the cell will be observed. This is consistent with JPH-203 being a LAT-1 inhibitor. FIG. 10G is an example according to various embodiments, illustrating results obtained for a two minute Leucine efflux experiment with compound 10. Cells were pre-incubated with ‘hot’ leucine (^3H labeled) and washed to remove unbound radiolabeled Leucine. The cells were then incubated in the presence and absence of unlabeled “cold” Leucine (100 μM) and/or the compound 10 (20 μM). In the presence of unlabeled ‘cold’ leucine, the cells released ‘hot’ ^3H-leucine into the media which was measured via scintillation/radioactivity counting. […] The efflux experiment was repeated and the time for monitoring efflux increased to 30 minutes. […] In summary, compound 10 inhibits Leucine uptake and facilitates LAT-1 mediated efflux.
^3H-Leucine Efflux Assay ^3H-Leucine efflux experiments were performed according to the protocol developed by Hälfliger et al. (2018) (referenced below) with the following changes. Briefly, cells were preloaded with 12 μM stock of L-[^3H]leucine (79 Ci/mmol) to give a final concentration of ^3H-leucine was 1.2 μM in each well. […] The medium was then collected and mixed with scintillation fluid (Scintiverse™ BD Cocktail) and radioactivity measured (Beckman Coulter LS 6500 Multi-Purpose Scintillation Counter). […] The lysate (300 μL) was mixed with scintillation fluid and radioactivity was counted. Relative efflux was expressed as percentage radioactivity=100%×(radioactivity of medium)/(radioactivity of the medium+radioactivity of the cells). […]

Like-named read-outs stand apart in the source and are kept apart here.

The term IC50 denotes the concentration that gives 50% inhibition. As a reminder, the EC50 is the concentration at which the effect is half-maximal. For `CC(C)(C)CCN1CCN(C(CNCc2ccccc2)Cc2ccccc2)CC1Cc1ccccc1.Cl.Cl.Cl` (stereo not drawn) [Compound 9, Benzyl-{2-[3-benzyl-4-(3,3-dimethyl-butyl)-piperazin-1-yl]-3-phenyl-propyl}-amine trihydrochloride salt], the “toxicity of compound alone” value with CHO K1 cells [1] (CHO K1, highest concentration tested (5 μM)) is listed as “nontoxic”; in assay [2] (L3.6pl, second highest concentration tested (1 μM), 72 h), “nontoxic”. In addition, the “toxicity (dose-response curve)” value in the assay on CHO K1 cells [1] (CHO K1 cells, up to the highest dose tested (15 μM)) is reported as “non-toxic”. In addition, the IC50 in assay [2] (Homo sapiens, L3.6pl cells, 72 h, read-out: 72 h IC50) was determined as 11.7 ± 0.9 µM. The EC50 was 0.75 µM in the assay on CHO K1 cells [3] (CHO K1 cells, 48 h (FIG. 5), read-out: Ant-44 potentiation EC50); 0.75 µM in the assay with CHO K1 cells [3] (CHO cells, 48 h, read-out: Ant44 potentiation assay EC50); 3.27 ± 0.17 µM in the assay on L3.6pl cells.
Regarding `NCCC[C@](N)(C(=O)O)C(F)F` [DFMO, α-difluoromethylornithine], the IC50 in the assay with CHO K1 cells [4] is 4200 µM.
Consider `Nc1cc(COc2c(Cl)cc(C[C@H](N)C(=O)O)cc2Cl)c2oc(-c3ccccc3)nc2c1` [JPH-203, reference compound], for which, in assay [2] (over the concentration range and time interval of the uptake experiment), the “toxicity to L3.6pl cells” value is “not toxic”. Also, at LAT-1 [5], the 3H-Leucine uptake result is reported as “dose dependent decrease in 3H-Leucine uptake”. For the same compound, on LAT-1 [6], the “3H-leucine efflux stimulated by unlabeled Leucine (100 μM)” value was “inhibited” and the “3H-leucine efflux, compound alone” value is reported as “modestly stimulated efflux”.

The record behind these values is US20210317090A1, “AMINO ACID DEPLETION AGENTS AS ANTIPROLIFERATIVE AGENTS” (University of Central Florida Research Foundation, Inc., priority 2018, published 2021).
